Assays:
cruzain = cruzain (Trypanosoma cruzi, UniProt P25779); experiment: biochemical; conditions: for Cruzain 0’ Inhibition / Cruzain 10’ Inhibition: sheet "Screening results"
Protocol: (§1) Allison Doak and Prof. Brian Shoichet (University of California San Francisco, San Francisco, CA, USA) and Prof. Conor Caffrey (University of California San Diego, San Diego, CA, USA) generously provided recombinant cruzain and TbrCatL, respectively. In vitro activity of proteases cruzain and TbrCatL was assayed as previously described. Briefly, enzyme activity was measured by monitoring the cleavage of the fluorogenic substrate […] (Z-FR-AMC) at 25 °C. Fluorescence was monitored at 340/440 nm (excitation/emission) over 5–7 min in a Synergy2 Biotek plate reader. […] DMSO and 1 μM E-64 were employed as negative and positive controls, respectively, in all assays. Two conditions were employed for both enzymes: 10′ pre-incubation of the enzyme in the presence of the compound (10′ inc) and no pre-incubation (0′). Reported values correspond to the mean and standard error of the mean (SEM) and all analyses were performed using GraphPad Prism 6.0.
(§2) For the initial screening, compounds were assayed at 5 μM. […] IC50 curves were obtained from a non-linear fit of at least seven distinct compound concentrations, in triplicate. Reported IC50 values are the mean and SEM of two independent measurements.

TbrCatL = molecular target: T1, TbrCatL (Trypanosoma brucei rhodesiense, UniProt Q95PM0); experiment: TbrCatL enzymatic inhibition assay (cleavage of fluorogenic substrate Z-FR-AMC); assay type: biochemical; conditions: for TbrCatL 0’ Inhibition / TbrCatL 10’ Inhibition: sheet "Screening results"
T1 construct: Conor Caffrey (University of California San Diego)
Protocol: as §1, §2

[1] = 0’ (no pre-incubation), sheet Screening results
[2] = 10’ (pre-incubation), sheet Screening results
[3] = 0’ (pre-incubation time), Pathogen Box screening results
[4] = 10’ (pre-incubation time), Pathogen Box screening results
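Also: at 5 µM compound concentration.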

Chain of cruzain (P25779 123-337 limits assumed): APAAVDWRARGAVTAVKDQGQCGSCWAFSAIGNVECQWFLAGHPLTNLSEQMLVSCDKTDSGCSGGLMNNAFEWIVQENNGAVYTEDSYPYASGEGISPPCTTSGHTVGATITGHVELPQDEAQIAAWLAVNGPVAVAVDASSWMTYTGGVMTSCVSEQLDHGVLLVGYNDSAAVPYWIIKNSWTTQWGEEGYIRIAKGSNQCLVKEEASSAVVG
T1 sequence (Q95PM0 entry or part of it): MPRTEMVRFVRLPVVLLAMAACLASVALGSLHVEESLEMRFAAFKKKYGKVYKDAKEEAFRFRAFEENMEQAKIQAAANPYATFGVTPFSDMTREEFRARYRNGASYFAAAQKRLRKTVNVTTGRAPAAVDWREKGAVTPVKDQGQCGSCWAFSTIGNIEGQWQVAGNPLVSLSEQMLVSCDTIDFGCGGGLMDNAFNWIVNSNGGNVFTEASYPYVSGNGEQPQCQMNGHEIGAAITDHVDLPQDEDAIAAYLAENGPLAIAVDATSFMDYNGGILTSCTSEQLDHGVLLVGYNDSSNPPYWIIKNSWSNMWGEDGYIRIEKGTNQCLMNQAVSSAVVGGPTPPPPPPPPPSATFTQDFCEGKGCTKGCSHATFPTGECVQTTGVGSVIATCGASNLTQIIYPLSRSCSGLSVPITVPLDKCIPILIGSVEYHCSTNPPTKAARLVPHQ

Row | SMILES | Cruzain Inhibition 0’ (cruzain; [1]) [%] | Cruzain Inhibition 10’ (cruzain; [2]) [%] | TbrCatL Inhibition 0’ (TbrCatL; [1]) [%] | TbrCatL Inhibition 10’ (TbrCatL; [2]) [%] | other results
1 | CN1CCN(c2cc(-c3ccc(F)cc3)nc(-c3ccncc3)n2)CC1 [MMV688888] | 18 | 14 | 19 | 9 | –
2 | CCOC(=O)c1noc(N)c1-c1ccccc1 [MMV1236379] | – | – | – | – | Cruzain Inhibition 0’ (cruzain; [3]): -8%; Cruzain Inhibition 10’ (cruzain; [4]): 7%; TbrCatL Inhibition 0’ (TbrCatL; [3]): -9%; TbrCatL Inhibition 10’ (TbrCatL; [4]): -1.7%
3 | O=C(c1ccc(F)cc1)N(CCNc1ccccc1)c1ccccc1 [MMV676204] | 6 | 4.7 | 2.6 | -1.3 | –
4 | NCCC[C@@](N)(C(=O)O)C(F)F [MMV001625] | 20 | 7 | 2 | -1.9 | –
5 | CCN(CC)S(=O)(=O)c1ccc(C(=O)Nc2cc(C)nn2-c2nc(C)c(C)c(=O)[nH]2)cc1 [MMV595321] | -13 | -3.8 | -23 | -29 | –
6 | CCc1c(C)nc(-n2nc(C)cc2NC(=O)c2ccccc2SC)[nH]c1=O [MMV676477] | -0.2 | -11 | -4 | -17 | –
7 | CC(C)(C)c1cnc(NC(=O)c2ccccc2O)s1 [MMV495543] | – | – | – | – | Cruzain Inhibition 0’ (cruzain; [3]): -17%; Cruzain Inhibition 10’ (cruzain; [4]): 3.4%; TbrCatL Inhibition 0’ (TbrCatL; [3]): -9%; TbrCatL Inhibition 10’ (TbrCatL; [4]): 6.5%
8 | CC(C)(C)OC(=O)N1CCC(Cn2nc(-c3cnc4ccccc4c3)c3c(N)ncnc32)CC1 [MMV688364] | – | – | – | – | Cruzain 0’ Inhibition (cruzain; 0’ (pre-incubation time)): -14%; Cruzain 10’ Inhibition (cruzain; 10’ (pre-incubation time)): 0%; TbrCatL 0’ Inhibition (TbrCatL; 0’ (pre-incubation time)): -10%; TbrCatL 10’ Inhibition (TbrCatL; 10’ (pre-incubation time)): -15%
9 | CCOC(=O)c1c(NC(=O)c2c(F)c(F)c(F)c(F)c2F)sc(C(N)=O)c1C [MMV153413] | – | – | – | – | Cruzain 0’ Inhibition (cruzain; 0’ (pre-incubation time)): 0.7%; Cruzain 10’ Inhibition (cruzain; 10’ (pre-incubation time)): 23%; TbrCatL 0’ Inhibition (TbrCatL; 0’ (pre-incubation time)): 1.1%; TbrCatL 10’ Inhibition (TbrCatL; 10’ (pre-incubation time)): 39%
10 | Cc1[nH]c2ccccc2c1C(c1cccs1)N1CCN(C)CC1 (stereo not drawn) [MMV688768] | 2.7 | 9 | 0.9 | 2.4 | –
11 | CCOc1ccccc1NC(C)C(=O)Nc1cc(C(F)(F)F)ccc1N1CCOCC1 (stereo not drawn) [MMV407834] | – | – | – | – | Cruzain 0’ Inhibition (cruzain; 0’ (pre-incubation time)): -3.4%; Cruzain 10’ Inhibition (cruzain; 10’ (pre-incubation time)): 4%; TbrCatL 0’ Inhibition (TbrCatL; 0’ (pre-incubation time)): -3%; TbrCatL 10’ Inhibition (TbrCatL; 10’ (pre-incubation time)): -7%
12 | Nc1c2c(nc3sc4c(c13)CCCC4)CCCC2 [MMV676588] | 11 | 13 | 14 | 2 | –
13 | FC(F)(F)c1nnc2ccc(Cl)nn12 [MMV069458] | 2 | -4 | 4 | 0 | –
14 | COc1ccc(C2=NCCN2)cc1-c1cn(-c2cccc(C3=NCCN3)c2)nn1 [MMV688547] | 10 | 13 | 6 | 4 | –
15 | CNc1nnc(Sc2cnn(-c3ccccc3)c(=O)c2Cl)s1 [MMV688763] | 6 | 9 | 7.5 | 1.7 | –
16 | Cc1noc(C)c1C(=O)N1CCCC(c2[nH]c3c(C)cccc3c2-c2ccncc2)C1 (stereo not drawn) [MMV020623] | 0.3 | 5 | -5.6 | 4 | –
17 | COc1ccc(Cl)cc1NC(=O)CN(C)C(=O)c1cnn(-c2ccccc2)n1 [MMV020710] | -11 | -36 | -10 | -99 | –
18 | COc1cc(NC(=O)Cc2nn(C)c(=O)c3ccccc23)ccc1Cl [MMV676053] | – | – | – | – | Cruzain 0’ Inhibition (cruzain; 0’ (pre-incubation time)): 0%; Cruzain 10’ Inhibition (cruzain; 10’ (pre-incubation time)): 1.7%; TbrCatL 0’ Inhibition (TbrCatL; 0’ (pre-incubation time)): 1.2%; TbrCatL 10’ Inhibition (TbrCatL; 10’ (pre-incubation time)): 1.5%

— PMC9967275, “Screening the Pathogen Box to Discover and Characterize New Cruzain and TbrCatL Inhibitors” (Pathogens, 2023)
